Results reported in US10982188B2, “Synthetic retina” (University of Newcastle Upon Tyne, priority 2014, dated 2021).

Assays:
[1] = tested on: hESC and hiPSC derived photoreceptors; test: Calcium imaging (Fura-2) of cGMP response; assay type: cell-based, human; conditions: for effect on cGMP-mediated increase in Ca2+ influx: cobalt chloride and magnesium chloride together in the perfusate with cGMP
From the text: In order to determine whether developing photoreceptors contained the machinery necessary for transduction, the inventors plated differentiating EBs onto poly-L-ornithine and laminin-coated 6 well plates for 15 days prior to optical recording using calcium imaging. Membrane disks in the outer segment of native photoreceptors contain a photopigment (for example the rod-specific pigment rhodopsin consists of opsin+retinal), and the cell membrane in outer segments contains cyclic guanosine monophosphate (cGMP)-gated cationic (sodium and calcium) channels. In the dark, cGMP levels are high and the photoreceptors are maintained in a depolarised state via influx of Na^+ and Ca^2+ through these cGMP-gated channels which are in an open state. Exposure to light causes the retinal part of the photopigment to isomerise to trans-retinal, leading to activation of multiple G-proteins and phosphodiesterase 6 which in turns degrades cGMP, resulting in closure of the channels and membrane hyperpolarisation. To test if the hESC and hiPSC derived photoreceptors respond in a similar manner, on day 30, 45 and 60 of differentiation, cells were exposed to flashes of red, green, blue or white light, or to membrane-permeable 8-br-cGMP. As 8-br-cGMP opens the cationic (Na^+ and Ca^2+) channel associated with phototransduction, it triggers a Ca^2+ influx in photoreceptors known as the inward dark current. Loading cells with the fluorescent Ca^2+ indicator Fura-2 therefore enables the visualisation of changes in intracellular calcium associated with opening or closing of the cGMP-gated channel, with a decrease in fluorescence representing an increase in calcium influx.
EBs were dark adapted for 24 hours prior to recording then loaded with Fura-2 AM (10 μM, Molecular probes/Invitrogen) for 45 min at 37° C. (95% O2/5% CO2) followed by perfusion (1 ml/minute) with oxygenated artificial Cerebrospinal Fluid (aCSF; 118 mM NaCl, 25 mM NaHCO3, 1 mM NaH2PO4, 3 mM KCl, 1 mM MgCl2, 2 mM CaCl2, 10 mM glucose) for one hour. Cells were exposed to 8-br-cGMP (cGMP, 1 mM, Sigma) in aCSF. Control recordings were performed with aCSF alone or with 8-br-cGMP in CaCl2-free aCSF supplemented with calcium channel blocker Cobalt (II) chloride (CoCl2, 4 mM, AnalaR) and 10 mM HEPES. Fluorescence was monitored using an inverted Olympus IX71 microscope and images (excitation 380 nm, 800 ms exposure) acquired using a Quantem 512SC camera (Photometrics) and MetaMorph Software (Molecular Devices). For each stimulation 20 seconds baseline activity was recorded. Fluorescence change was analysed using the formula % Δl/lo=(l1−lo)×100/lo, where lo was the average cellular fluorescence during baseline activity and l1 following stimulation. Significance was determined using a student's t-test (P<0.01).

[2] = target: T1, IGF-IR (Homo sapiens, UniProt P08069); test: IGF-1 receptor signalling interference: optic vesicle/optic cup formation and survival of EBs; assay type: cell-based; conditions: for optic vesicle production from differentiating EBs: 7 μM
T1 construct: endogenous in cells; host or cells: hESC (line H9, WiCell)-derived embryoid bodies
Procedure: To confirm the contribution of the IGF-1 signalling pathway in this process, the inventors differentiated cells in the presence of a pharmacological inhibitor of the IGF-IR (pi(IR)) or a neutralising antibody directed against the IGF-II receptor, IGF-IIR ((n)IIR), in the presence (+) or absence (−) of IGF-1 supplementation (FIG. 5I, J).
hESCs were expanded and differentiated as described. For interference of IGF-1 receptor signalling an IGF-IR-specific pharmacological inhibitor ([7 μM], AG1024, Stratech) was added to differentiation media for the entire differentiation period. To block/neutralise IGF-II receptor signalling, media was supplemented with goat IgG anti-human IGF-IIR antibody ([0.25 μg/ml], AF2447, R&D) throughout differentiation.

[3] = tested on: differentiating hESCs; test: Optic vesicle and optic cup formation from EBs differentiated in 3D with IGF-1; assay type: cell-based, human
Procedure: hESC (line H9, WiCell) and hiPSC lines Clone 4^25 and NHDF^26 were expanded and differentiated as previously described.^14 For IGF-1 treatment, cultures were differentiated in VNIM media^14 supplemented with recombinant human IGF-1 (5 ng/ml, Sigma) until day 37, then in basal Knockout serum-free media^14 with 10 ng/ml IGF-1 until day 90 (FIG. 1A). Control cultures were differentiated in parallel in the absence of IGF-1. Time-lapse capture of culture morphology was achieved using a BioStation CT (Nikon).

[4] = tested on: human pluripotent stem cells; test: Modified differentiation media, mTeSR1 feeder-free adapted cells: optic cup formation; assay type: cell-based; conditions: 2 and 3 fold increase in IGF-1 concentration, FIG. 15
Procedure: Human pluripotent stem cells were grown under feeder free conditions the effect of freeder free conditions on their differentiation potential to synthetic retina investigated.
mTeSR1 media (Stem Cell Technologies) is a highly specialised serum-free and complete media designed for feeder-free culture. Cells to this feeder-free technique and subjected to differentiation studies using the IGF-1 factor as discussed above.

T1 sequence (P08069 31-1367): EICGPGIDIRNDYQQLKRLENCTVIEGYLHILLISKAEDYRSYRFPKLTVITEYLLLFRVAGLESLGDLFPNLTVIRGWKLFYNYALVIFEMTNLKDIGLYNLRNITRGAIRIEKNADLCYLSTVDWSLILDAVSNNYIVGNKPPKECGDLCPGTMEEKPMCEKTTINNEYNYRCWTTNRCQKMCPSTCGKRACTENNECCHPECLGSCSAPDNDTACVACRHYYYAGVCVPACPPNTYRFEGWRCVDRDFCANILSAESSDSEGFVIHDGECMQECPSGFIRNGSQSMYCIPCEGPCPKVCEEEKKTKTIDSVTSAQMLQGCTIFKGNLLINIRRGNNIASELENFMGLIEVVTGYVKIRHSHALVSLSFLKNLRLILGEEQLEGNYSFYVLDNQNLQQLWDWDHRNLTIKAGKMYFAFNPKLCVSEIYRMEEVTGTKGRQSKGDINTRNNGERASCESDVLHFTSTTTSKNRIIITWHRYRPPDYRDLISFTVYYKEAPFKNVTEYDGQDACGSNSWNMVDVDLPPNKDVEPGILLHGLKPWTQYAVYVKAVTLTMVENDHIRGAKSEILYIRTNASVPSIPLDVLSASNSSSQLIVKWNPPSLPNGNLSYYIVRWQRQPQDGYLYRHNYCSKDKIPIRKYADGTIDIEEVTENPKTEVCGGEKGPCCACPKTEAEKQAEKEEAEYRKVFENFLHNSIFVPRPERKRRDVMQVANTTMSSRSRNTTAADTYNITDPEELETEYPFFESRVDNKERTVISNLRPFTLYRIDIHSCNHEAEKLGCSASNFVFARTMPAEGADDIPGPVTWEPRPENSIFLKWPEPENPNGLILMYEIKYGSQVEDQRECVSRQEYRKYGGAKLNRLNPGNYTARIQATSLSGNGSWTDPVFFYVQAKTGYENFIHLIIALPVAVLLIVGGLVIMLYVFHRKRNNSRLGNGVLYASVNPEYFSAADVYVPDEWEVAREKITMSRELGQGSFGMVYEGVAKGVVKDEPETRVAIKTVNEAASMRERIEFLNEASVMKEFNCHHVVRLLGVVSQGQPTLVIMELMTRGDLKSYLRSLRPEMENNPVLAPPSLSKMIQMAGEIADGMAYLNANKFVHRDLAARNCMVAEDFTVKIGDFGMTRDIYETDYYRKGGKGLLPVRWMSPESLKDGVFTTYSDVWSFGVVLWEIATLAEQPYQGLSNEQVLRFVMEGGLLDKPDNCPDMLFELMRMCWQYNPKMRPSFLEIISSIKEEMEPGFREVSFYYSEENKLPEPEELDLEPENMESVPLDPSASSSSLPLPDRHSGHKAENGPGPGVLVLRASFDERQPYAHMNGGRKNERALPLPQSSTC

Nc1nc2c(nc(Br)n2[C@@H]2O[C@@H]3COP(=O)(O)O[C@H]3[C@H]2O)c(=O)[nH]1 [8-br-cGMP]
Fura-2 fluorescence change (Ca2+ influx) ([1]; IGF-1 treated cultures, 1 mM in aCSF): decreased fluorescence

CC(C)(C)c1cc(C=C(C#N)C#N)cc(Br)c1O [(pi)IR]
viability of cultures ([2]; after day 45, with and without exogenous IGF-1): did not remain viable | optic cups ([2]; day 45): undetectable | optic vesicle production from differentiating EBs ([2]; day 45, absence of IGF-1 ((pi)IR-), p=0.021): significantly reduced | optic vesicle production from differentiating EBs ([2]; day 45, presence of IGF-1 ((pi)IR+), p=0.023): significantly reduced | survival of EBs ([2]; days of differentiation, with and without IGF-1): ≤ 50 days

[Cl-].[Cl-].[Co+2] [cobalt chloride, Cobalt (II) chloride]
effect on cGMP-mediated increase in Ca2+ influx [1]: abolished

[Cl-].[Cl-].[Mg+2] [magnesium chloride]
effect on cGMP-mediated increase in Ca2+ influx [1]: abolished

IGF-1: recombinant human IGF-1 (Sigma), single-chain 70-amino-acid protein, SEQ ID NO:1
frequency of optic vesicle formation ([3]; IGF-1 in differentiation media vs control, FIG. 5I): significantly increased | optic vesicle formation relative to control levels ([3]; by day 15): double | increase in optic vesicle and optic cup formation vs control ([3]; by day 60): 4 fold | EBs with optic cup formation ([3]; day 60, FIG. 5J, control 3.9%): 17.4% | cGMP respondent cultures ([1]; by day 90, 8-br-cGMP stimulation): 45.3% | cGMP respondent cultures ([1]; day 45 of differentiation, 8-br-cGMP stimulation): 24.1% | formation of optic cups on increasing concentration [4]: did not cause any significant changes
